From PMC11571207, “Stereorandomized Oncocins with Preserved Ribosome Binding and Antibacterial Activity” (Journal of Medicinal Chemistry, 2024)
Values after ≈ are worked out from the molar mass of the structure shown. Non-standard residues stand in square brackets, D forms with d. Residues, ends and D or L forms follow the SMILES beside them. No end group written: not given here.

Experiments:
human red blood cells = test: Hemolysis assay, minimum hemolytic concentration; details: for Haemolysis on hRBC, MHC: 2.5% human red blood cells (final) in 10 mM phosphate, 150 mM NaCl, pH 7.4, 25 °C, 4 h, visual inspection; for MHC human red blood cells: supplement CSV
P. aeruginosa PAO1 = test: microbe, parasite or virus in culture; details: for MIC P. aeruginosa, 12.5% MHB / MIC P. aeruginosa, Full MHB: P. aeruginosa PAO1, 16–20 h at 37 °C; for MIC P. aeruginosa, 12.5% MHB: 12.5% Müller–Hinton medium; for MIC P. aeruginosa, Full MHB: full Müller–Hinton medium; for MIC P. aeruginosa PAO1: supplement CSV
From the text: (§1) We tested antibacterial effects against the Gram-negative bacteria Escherichia coli, Klebsiella pneumoniae, Pseudomonas aeruginosa, and Acinetobacter baumannii and the Gram-positive methicillin-resistant Staphylococcus aureus (MRSA).
(§2) Bacterial growth assay (Figure S1), transmission electron microscopy (Figure S6), serum stability assay (Figure S7), circular dichroism spectral recording (Figures S8 and S9), antimicrobial and hemolysis activity assays (MIC and MHC), and vesicle leakage assay were carried out as described in earlier publications.[43],[44]
(§3) Minimum inhibitory concentration assay
(§4) Antimicrobial activity was assayed against P. aeruginosa PAO1, K. pneumoniae NCTC418, E. coli W3110, A. baumannii ATCC 19606, methicillin-resistant S. aureus COL (MRSA), and for selected peptides on P. aeruginosa PA14 and the polymyxin-B-resistant derivative PA14 2P4, as well as the clinical isolates ZEM-1A and ZEM9A, K. pneumoniae OXA-48, S. aureus Newman, Enterobacter cloacae and Burkholderia cenocepacia. The minimal inhibitory concentration (MIC) was determined by using broth microdilution method. A colo ny of bacteria was picked and grown in Luria-Bertani (LB) medium overnight at 37°C. For E. coli BW25113 sbmA::kan the medium was supplemented with 25 mg/L of kanamycin. The next day, the culture was then regrown in LB medium to log phase (OD600 = 0.6 to 0.8), which lasted approximately 4 h, and diluted to an OD600 of 0.022 in the desired medium. Stock solutions of 1 mg/mL of the samples were prepared in sterilized milliQ water and diluted to the beginning concentration of 64 μg/mL in 300 μL Mueller Hinton (MH)-medium. The diluted samples were added to first well of 96-well microtiter plate (TPP, untreated, Faust Laborbedarf, AG, Schaffhausen) and diluted serially by ½. Finally, 4 μL of the bacterial suspension was inoculated into the sample solutions (150 μL/well) with a final inoculation of about 5∙10^5 CFU/mL. The plates were then incubated at 37°C for 15-18h. For each assay, sterility (broth only) and growth control (broth with bacterial inoculum, without antibiotics) were checked with two columns in the plate. The next day, 15 μL of 3-(4,5-dimethylthiazol-2-yl)-2,5-diphenyltetrazolium bromide (MTT) was added to each well of the plate, such a way that MIC was defined as the lowest concentration of the peptide that inhibited visible growth of the tested

E. coli W3110 = test: microbe, parasite or virus in culture; details: for MIC E. coli, 12.5% MHB / MIC E. coli, Full MHB: E. coli W3110, 16–20 h at 37 °C, broth microdilution; for MIC E. coli, 12.5% MHB: 12.5% Müller–Hinton medium; for MIC E. coli, Full MHB: full Müller–Hinton medium; for MIC E. coli W3110: supplement CSV
From the text: as §1, §2, §3, §4

K. pneumoniae NCTC 418 = test: microbe, parasite or virus in culture; details: for MIC K. pneumoniae, 12.5% MHB / MIC K. pneumoniae, Full MHB: K. pneumoniae NCTC 418, 16–20 h at 37 °C; for MIC K. pneumoniae, 12.5% MHB: 12.5% Müller–Hinton medium; for MIC K. pneumoniae, Full MHB: full Müller–Hinton medium; for MIC K. pneumoniae NCTC418: supplement CSV
From the text: as §1, §2, §3, §4

A. baumannii ATCC19606 = test: microbe, parasite or virus in culture; details: for MIC A. baumannii, 12.5% MHB / MIC A. baumannii, Full MHB: A. baumannii ATCC19606, 16–20 h at 37 °C; for MIC A. baumannii, 12.5% MHB: 12.5% Müller–Hinton medium; for MIC A. baumannii, Full MHB: full Müller–Hinton medium; for MIC A. baumannii ATCC19606: supplement CSV
From the text: as §1, §2, §3, §4

S. aureus COL (MRSA) = test: microbe, parasite or virus in culture; details: for MIC S. aureus, 12.5% MHB / MIC S. aureus, Full MHB: S. aureus COL (MRSA), 16–20 h at 37 °C; for MIC S. aureus, 12.5% MHB: 12.5% Müller–Hinton medium; for MIC S. aureus, Full MHB: full Müller–Hinton medium; for MIC S. aureus COL (MRSA): supplement CSV
From the text: as §1, §2, §3, §4

## CC[C@H](C)[C@H](NC(=O)[C@H](CCCNC(=N)N)NC(=O)[C@H](CCCNC(=N)N)NC(=O)[C@@H]1CCCN1C(=O)[C@@H]1CCCN1C(=O)[C@H](CCCNC(=N)N)NC(=O)[C@@H]1CCCN1C(=O)[C@H](CCCNC(=N)N)NC(=O)[C@@H]1CCCN1C(=O)[C@H](CC(C)C)NC(=O)[C@@H](Cc1ccc(O)cc1)NC(=O)[C@@H]1CCCN1C(=O)[C@@H]1CCCN1C(=O)[C@H](CCCCN)NC(=O)[C@H](CC(=O)O)NC(=O)[C@@H](N)C(C)C)C(=O)N[C@@H](Cc1ccc(O)cc1)C(=O)N[C@@H](CC(N)=O)C(=O)N[C@@H](CCCNC(=N)N)C(N)=O [DY6-Onc] (H-VDKPP[dY]LPRPRPPRRIYNR-NH2)
Human red blood cells
  Haemolysis on hRBC, MHC: >1000 µg/mL
  MHC human red blood cells: >1000 µg/mL
P. aeruginosa PAO1
  MIC P. aeruginosa, 12.5% MHB: 16 µg/mL (≈ 6.69 µM)
  MIC P. aeruginosa, Full MHB: > 64 µg/mL
P. aeruginosa PAO1; 12.5% MH pH 7.4
  MIC P. aeruginosa PAO1: 16 µg/mL (≈ 6.69 µM)
P. aeruginosa PAO1; full MH pH 7.4
  MIC P. aeruginosa PAO1: >64 µg/mL
E. coli W3110
  MIC E. coli, 12.5% MHB: 4 µg/mL (≈ 1.67 µM)
  MIC E. coli, Full MHB: 16 µg/mL (≈ 6.69 µM)
E. coli W3110; 12.5% MH pH 7.4
  MIC E. coli W3110: 4 µg/mL (≈ 1.67 µM)
E. coli W3110; full MH pH 7.4
  MIC E. coli W3110: 16 µg/mL (≈ 6.69 µM)
K. pneumoniae NCTC 418
  MIC K. pneumoniae, 12.5% MHB: 4 µg/mL (≈ 1.67 µM)
  MIC K. pneumoniae, Full MHB: 8 µg/mL (≈ 3.35 µM)
K. pneumoniae NCTC 418; 12.5% MH pH 7.4
  MIC K. pneumoniae NCTC418: 4 µg/mL (≈ 1.67 µM)
K. pneumoniae NCTC 418; full MH pH 7.4
  MIC K. pneumoniae NCTC418: 8 µg/mL (≈ 3.35 µM)
A. baumannii ATCC19606
  MIC A. baumannii, 12.5% MHB: 16 µg/mL (≈ 6.69 µM)
  MIC A. baumannii, Full MHB: > 64 µg/mL
A. baumannii ATCC19606; 12.5% MH pH 7.4
  MIC A. baumannii ATCC19606: 16 µg/mL (≈ 6.69 µM)
A. baumannii ATCC19606; full MH pH 7.4
  MIC A. baumannii ATCC19606: >64 µg/mL
S. aureus COL (MRSA)
  MIC S. aureus, 12.5% MHB: >64 / 64 μg/mL
  MIC S. aureus, Full MHB: >64 / 64 μg/mL
S. aureus COL (MRSA); 12.5% MH pH 7.4
  MIC S. aureus COL (MRSA): 64 µg/mL (≈ 26.8 µM)
S. aureus COL (MRSA); full MH pH 7.4
  MIC S. aureus COL (MRSA): >64 µg/mL

## VDKPPYLPRPRPPRRIYNR [sr3N5Cterm-Onc] (VDKPPYLPRPRPPRRIYNR-NH2; also: residues 1-3 and 15-19 stereorandomized (1:1 L/D mixture))
Human red blood cells
  Haemolysis on hRBC, MHC: >1000 µg/mL
  MHC human red blood cells: >1000 µg/mL
P. aeruginosa PAO1
  MIC P. aeruginosa, 12.5% MHB: 8 µg/mL
  MIC P. aeruginosa, Full MHB: > 64 µg/mL
P. aeruginosa PAO1; 12.5% MH pH 7.4
  MIC P. aeruginosa PAO1: 8 µg/mL
P. aeruginosa PAO1; full MH pH 7.4
  MIC P. aeruginosa PAO1: >64 µg/mL
E. coli W3110
  MIC E. coli, 12.5% MHB: 1 µg/mL
  MIC E. coli, Full MHB: 8 µg/mL
E. coli W3110; 12.5% MH pH 7.4
  MIC E. coli W3110: 1 µg/mL
E. coli W3110; full MH pH 7.4
  MIC E. coli W3110: 8 µg/mL
K. pneumoniae NCTC 418
  MIC K. pneumoniae, 12.5% MHB: 1 µg/mL
  MIC K. pneumoniae, Full MHB: 16 µg/mL
K. pneumoniae NCTC 418; 12.5% MH pH 7.4
  MIC K. pneumoniae NCTC418: 1 µg/mL
K. pneumoniae NCTC 418; full MH pH 7.4
  MIC K. pneumoniae NCTC418: 16 µg/mL
A. baumannii ATCC19606
  MIC A. baumannii, 12.5% MHB: 4 µg/mL
  MIC A. baumannii, Full MHB: 32 µg/mL
A. baumannii ATCC19606; 12.5% MH pH 7.4
  MIC A. baumannii ATCC19606: 4 µg/mL
A. baumannii ATCC19606; full MH pH 7.4
  MIC A. baumannii ATCC19606: 32 µg/mL
S. aureus COL (MRSA)
  MIC S. aureus, 12.5% MHB: >64 / 64 μg/mL
  MIC S. aureus, Full MHB: >64 / 64 μg/mL
S. aureus COL (MRSA); 12.5% MH pH 7.4
  MIC S. aureus COL (MRSA): 64 µg/mL
S. aureus COL (MRSA); full MH pH 7.4
  MIC S. aureus COL (MRSA): >64 µg/mL
